Laboratory results reported in patent US6436955B1, “Crystal modification A of 8-cyano-1-cyclopropyl-7-(is,6s-2,8-diazabicyclo[4.3.0]nonan-8-yl)-6-fluoro-1,4-dihydro-4-oxo-3-quinolinecarboxylic acid” (Bayer Aktiengesellschaft, priority 1998, dated 2002).

Test: Water absorption from the atmosphere at 95% relative atmospheric humidity
Type: physicochemical
Details: relative atmospheric humidity of 95% (saturated solution of Na2HPO4×12 H2O with sediment in water); within one day
Description: At a relative atmospheric humidity of 95% (established using a saturated solution of Na2HPO4×12 H2O with sediment in water), the solid obtained according to this procedure absorbs approximately 17% by weight of water within one day.
At a relative atmospheric humidity of 95% (established using a saturated solution of Na2HPO4×12 H2O with sediment in water), the solid obtained according to this procedure absorbs approximately 3% by weight of water within one day.

SMILES | water absorbed by the solid
N#Cc1c(N2C[C@@H]3CCCN[C@@H]3C2)c(F)cc2c(=O)c(C(=O)O)cn(C3CC3)c12 [Comparative Example, 8-cyano-1-cyclopropyl-7-(1S,6S-2,8-diazabicyclo[4.3.0]nonan-8-yl)-6-fluoro-1,4-dihydro-4-oxo-3-quinolinecarboxylic acid] | approximately 17 % by weight
N#Cc1c(N2C[C@@H]3CCCN[C@@H]3C2)c(F)cc2c(=O)c(C(=O)O)cn(C3CC3)c12 [Example 1, 8-cyano-1-cyclopropyl-7-(1S,6S-2,8-diazabicyclo[4.3.0]nonan-8-yl)-6-fluoro-1,4-dihydro-4-oxo-3-quinolinecarboxylic acid] | approximately 3 % by weight
